Tests used:
[1] = system: CHOP; assay: Western blot of CHOP upregulation (UPR, downstream of PERK); assay type: cell-based, Human; conditions: cells incubated with A2E
Protocol: Immunoblotting. Total cell lysates were extracted using RIPA lysis buffer (50 mM TrisHCl, Ph 8.0, 150 mM NaCl, 1% NP40, 0.5% Sodium Deoxycholate, 0.1% SDS, protease-phosphatase inhibitor) after the incubation of the specific sample group in a 48 well plate. Sonication or syringing (20 times) was done followed by centrifugation at 12,000×g for 10 mins and the supernatant was collected and stored in −80° C. Proten concentration from homogenates were assessed by Pierce Rapid Gold BCA protein assay kit (ThermoFisher Scientific, cat.no. A53225). Then 30 μg of protein was analyzed by standard SDS-PAGE gel. Samples were mixed 4:1 (v:v) with Nupage loading buffer with or without 8% 0-mercaptoethanol and heated for 10 min at 72° C. SDS-PAGE was done using 4-12% Nupage gel and buffer (Life, NP0335BOX). Next, SDS-PAGE gel was transferred to nitrocellulose membrane (Whatman, PROTAN BA83) overnight at 20V. The following day, 5% milk in TBS was used for 2 h blocking the membrane and then primary antibody was added in TBST (TBS, 0.1% Tween-20) for overnight at 4° C. Next day membranes were washed and incubated for 2 hours at room temperature with HRP conjugated secondary antibody (cat #G21234, Invitrogen) at 1:10,000 dilution. After 3 more washed membranes were probed with enhanced chemiluminescence (ECL) reagent and detected using an X-ray films for chemiluminescence image (GE healthcare, RPN2106). Scanning/imaging and quantitation of the image was done using silverfast 8 application software and Fiji Image J. Antibodies for Western blotting were list in FIG. 10.

[2] = system: IRE1α; assay: qPCR of spliced XBP1 (XBP1s) as readout of IRE1α activity in ARPE-19; assay type: cell-based, Human; conditions: ARPE-19, qPCR
Source text: RNA isolation and quantitative PCR. Total RNA was extracted from cultured cells or mouse eye RPE layer using the RNeasy Mini kit (QIAGEN). The total RNA was digested with deoxyribonuclease I to prevent amplification of genomic DNA. The total RNA then was reversed transcribed using High-Capacity cDNA Reverse Transcription Kit (ThermoFisher Scientific, cat.no. 4368814) and analyzed gene expression using SYBR Green Master Mix (ThermoFisher Scientific, cat.no. 4472908) in an Applied Biosystems StepOne real time PCR machine. GAPDH was used as a reference gene. […] After genes were amplified by real time PCR, some of the PCR products were separated by 2.5% agarose gel.

N=C1S/C(=C\c2cn[nH]c2-c2ccc(F)cc2)C(=O)N1c1nccs1 [Nec7, Necrostatin 7]
effect on LF-induced upregulation of CHOP / UPR [1]: completely abrogated
effect on LF-induced XBP1 splicing (XBP1s, IRE1α activity) [2]: completely abrogated
